Legend:
Type in all cases: cell-based
[1] = system: Acinetobacter baumannii expressing TEM-1, AmpC, and Oxa-24/40 (CL6188); conditions: concentration inhibiting 95% of bacterial growth; with BLi Relebactam 4 μg/mL; 22 hours; OD600
Method: (§1) Biological Assays Antibiotic Activity: Determination of Growth Inhibitory Concentration The concentrations of compounds required to inhibit the growth of various strains of bacteria were determined in an assay that assessed bacterial growth by measuring optical density at 600 nm (OD600). The bacterial strains tested included the clinical strains Escherichia coli expressing NDM-1 (CLB30016), Klebsiella pneumoniae expressing KPC-1 (CL6569), Acinetobacter baumannii expressing TEM-1, AmpC, and Oxa-24/40 (CL6188) and Pseudomonas aeruginosa expressing AmpC (CL5701). All compounds were tested in the presence of a β lactamase inhibitor (BLi, Relebactam) in 384-well microplates.
(§2) The clinical strains were stored as frozen single use stocks, thawed and diluted into 1.1× cation-adjusted Mueller-Hinton II broth to achieve approximately 2×10^5 CFU/mL. Test compounds were dissolved in DMSO and diluted 1:50 in the assay, resulting in a final concentration range of 100 μM to 0.098 μM. On the day of the assay, 1 μL of test compound was added to the plate followed by 4 μL of 50 μg/mL BLi in MOPS buffer and 45 μL of diluted bacteria. Plates were centrifuged at 1000 rpm for 30 seconds, shaken at approximately 800 rpm for 1 minute, and incubated at 35 t 2° C. for 22 hours. The concentration of BLi used in the assay was 4 μg/mL. At the end of the incubation, absorbance at 600 nm was determined using a spectrophotometer. Inhibition was quantitated by identifying the lowest concentration of test compound that was required to inhibit 95% of the growth of the bacteria.

[2] = system: Escherichia coli expressing NDM-1 (CLB30016); assay: Antibiotic activity: growth inhibitory concentration (OD600), E. coli CLB30016; conditions: concentration inhibiting 95% of bacterial growth, with BLi Relebactam 4 μg/mL, 22 hours
Method: as §1, §2

[3] = system: Pseudomonas aeruginosa expressing AmpC (CL5701); assay: Antibiotic activity: growth inhibitory concentration (OD600), P. aeruginosa CL5701; conditions: concentration inhibiting 95% of bacterial growth, with BLi Relebactam 4 μg/mL, 22 hours
Method: as §1, §2

SMILES | AB_CL6188 MITC95 [1] [µM] | EC_CLB30016 MITC95 [2] [µM] | PA_CL5701 MITC95 [3] [µM]
CC1(C)[C@H](NC(=O)/C(=N\O[C@](C)(C(=O)O)[C@H]2CCc3cc(C(=N)N[C@H]4C[C@@]5(CCNC5)C4)ccc3O2)c2csc(N)n2)C(=O)N1OS(=O)(=O)O [Compound 23, (S)-2-((R)-6-(N-((2s,4R)-6-azaspiro[3.4]octan-2-yl)carbamimidoyl)chroman-2-yl)-2-((((Z)-1-(2-aminothiazol-4-yl)-2-(((S)-2,2-dimethyl-4-oxo-1-(sulfooxy)azetidin-3-yl)amino)-2-oxoethylidene)amino)oxy)propanoic acid] | 6.25 | 6.25 | 3.125
COC[C@]1(NC(=N)c2ccc3c(c2)CC[C@H]([C@](C)(O/N=C(\C(=O)N[C@@H]2C(=O)N(OS(=O)(=O)O)C2(C)C)c2csc(N)n2)C(=O)O)O3)CC[C@@H](N)CC1 [Compound 126, (S)-2-((R)-6-(N-((1s,4S)-4-amino-1-(methoxymethyl)cyclohexyl)carbamimidoyl)chroman-2-yl)-2-((((Z)-1-(2-aminothiazol-4-yl)-2-(((S)-2,2-dimethyl-4-oxo-1-(sulfooxy)azetidin-3-yl)amino)-2-oxoethylidene)amino)oxy)propanoic acid] |  | 25 | 6.25
COC[C@]1(NC(=N)c2ccc3c(c2)CC[C@H]([C@](C)(O/N=C(\C(=O)N[C@@H]2C(=O)N(OS(=O)(=O)O)C2(C)C)c2csc(N)n2)C(=O)O)O3)CC[C@H](N)CC1 [Compound 127, (S)-2-((R)-6-(N-((1r,4R)-4-amino-1-(methoxymethyl)cyclohexyl)carbamimidoyl)chroman-2-yl)-2-((((Z)-1-(2-aminothiazol-4-yl)-2-(((S)-2,2-dimethyl-4-oxo-1-(sulfooxy)azetidin-3-yl)amino)-2-oxoethylidene)amino)oxy)propanoic acid] |  |  | 3.125
CC1(C)[C@H](NC(=O)/C(=N\O[C@](C)(C(=O)O)[C@H]2CCc3cc(C(=N)N[C@H]4C[C@]5(CCNC5)C4)ccc3O2)c2csc(N)n2)C(=O)N1OS(=O)(=O)O [Compound 22, (S)-2-((R)-6-(N-((2r,4S)-6-azaspiro[3.4]octan-2-yl)carbamimidoyl)chroman-2-yl)-2-((((Z)-1-(2-aminothiazol-4-yl)-2-(((S)-2,2-dimethyl-4-oxo-1-(sulfooxy)azetidin-3-yl)amino)-2-oxoethylidene)amino)oxy)propanoic acid] |  |  | 1.563
CC1(C)[C@H](NC(=O)/C(=N\O[C@](C)(C(=O)O)[C@H]2CCc3cc(C(=N)N[C@H]4C[C@](N)(CC(O)CO)C4)ccc3O2)c2csc(N)n2)C(=O)N1OS(=O)(=O)O (stereo partly drawn) [Compound 96, (S)-2-((R)-6-(N-((1R,3S)-3-amino-3-((S)-2,3-dihydroxypropyl)cyclobutyl)-carbamimidoyl)chroman-2-yl)-2-((((Z)-1-(2-aminothiazol-4-yl)-2-(((S)-2,2-dimethyl-4-oxo-1-(sulfooxy)azetidin-3-yl)amino)-2-oxoethylidene)amino)oxy)propanoic acid] | 6.25 |  | 1.563
COCc1c(C(=N)N[C@H]2C[C@@H](N)C2)ccc2c1CC[C@H]([C@](C)(O/N=C(\C(=O)N[C@@H]1C(=O)N(OS(=O)(=O)O)C1(C)C)c1csc(N)n1)C(=O)O)O2 [Compound 124, (S)-2-((R)-6-(N-((1s,3S)-3-aminocyclobutyl)carbamimidoyl)-5-(methoxymethyl)chroman-2-yl)-2-((((Z)-1-(2-aminothiazol-4-yl)-2-(((S)-2,2-dimethyl-4-oxo-1-(sulfooxy)azetidin-3-yl)amino)-2-oxoethylidene)amino)oxy)propanoic acid] |  | 50 | 3.125
CC1(C)[C@H](NC(=O)/C(=N\O[C@](C)(C(=O)O)[C@H]2CCc3cc(C(=N)N[C@H]4C[C@@H](N)C4)ccc3O2)c2csc(N)n2)C(=O)N1OS(=O)(=O)O [Compound 7, (S)-2-((R)-6-(N-((1 s,3S)-3-aminocyclobutyl)carbamimidoyl)chroman-2-yl)-2-((((Z)-1-(2-aminothiazol-4-yl)-2-(((S)-2,2-dimethyl-4-oxo-1-(sulfooxy)azetidin-3-yl)amino)-2-oxoethylidene)amino)oxy)propanoic acid] |  |  | 1.563
CC1(C)[C@H](NC(=O)/C(=N\O[C@](C)(C(=O)O)[C@H]2CCc3cc(C(=N)N[C@H]4C[C@@](N)(C[C@@H](O)CO)C4)ccc3O2)c2csc(N)n2)C(=O)N1OS(=O)(=O)O [Compound 95, (S)-2-((R)-6-(N-((1R,3R)-3-amino-3-((R)-2,3-dihydroxypropyl)cyclobutyl)carbamimidoyl)chroman-2-yl)-2-((((Z)-1-(2-aminothiazol-4-yl)-2-(((S)-2,2-dimethyl-4-oxo-1-(sulfooxy)azetidin-3-yl)amino)-2-oxoethylidene)amino)oxy)propanoic acid] |  | 6.25 | 1.563
CC1(C)[C@H](NC(=O)/C(=N\O[C@](C)(C(=O)O)[C@H]2CCc3cc(C(=N)NC4CC(N)(C[C@H](O)CO)C4)ccc3O2)c2csc(N)n2)C(=O)N1OS(=O)(=O)O (stereo partly drawn) [Compound 94, (S)-2-((R)-6-(N-((1S,3R)-3-amino-3-((S)-2,3-dihydroxypropyl)cyclobutyl)carbamimidoyl)chroman-2-yl)-2-((((Z)-1-(2-aminothiazol-4-yl)-2-(((S)-2,2-dimethyl-4-oxo-1-(sulfooxy)azetidin-3-yl)amino)-2-oxoethylidene)amino)oxy)propanoic acid] | 6.25 |  | 1.563

— patent US11932637B2, “Chromane amidine monobactam compounds for the treatment of bacterial infections” (priority 2021, dated 2024)
